Source: US20170290878A1, “METHODS OF TREATING CANCER WITH TUBULYSIN CONJUGATES” (Endocyte, Inc., priority 2014, published 2017)
Counter-ions that a name gives are not always drawn.

Tests used:
[1] = tested on: large KB tumors; experiment: Antitumor activity in large KB tumor model; type: in vivo, mice; conditions: EC1456 2 μmol/kg, three times a week for two weeks
Method: Female Balb/c nu/nu mice were fed ad libitum with folate-deficient chow (Harlan diet #TD01013) for the duration of the experiment. KB tumor cells were inoculated subcutaneously at the right flank of each mouse.
Growth of each s.c. tumor was followed by measuring the tumor two times per week. Tumors were measured in two perpendicular directions using Vernier calipers, and their volumes were calculated as 0.5×L×W^2, where L=measurement of longest axis in mm and W=measurement of axis perpendicular to L in mm.

[2] = tested on: LU2505 tumors; experiment: Antitumor activity in Huprime NSCLC PDX tumor model LU2505; type: in vivo, mice
Method: (§1) These studies were performed at Crown Bioscience (Beijing) Inc., Ground Floor, Light Muller Building, Changping Sector of Zhongguancun Scientific Park, No. 21 Huoju Road, Changping District, Beijing, P.R. China.

[3] = tested on: ST040 Endometrial tumors; experiment: Antitumor activity in Endometrial ST040 model; type: in vivo, mice
Method: (§2) These materials were obtained from and studies were performed at South Texas Accelerated Research Therapeutics, 4383 Medical Drive, San Antonio, Tex. 78229

[4] = Phase 1 dose-escalation study: safety, DLT; type: in vivo, human
Method: Compound I was administered via IV bolus injection.

[5] = tested on: ST738 TNBC tumors; experiment: Antitumor activity in Triple Negative Breast Cancer (TNBC) ST738 model; type: in vivo, mice
Method: as §2

[6] = tested on: KB-PR10 tumors; experiment: Antitumor activity on paclitaxel resistant KB-PR10 tumors in nu/nu mice; type: in vivo; conditions: three times a week for two weeks
Method: Four to six week-old female nu/nu mice (Harlan Sprague Dawley, Inc., Indianapolis, Ind.) were maintained on a standard 12 h light-dark cycle and fed ad libitum with folate-deficient chow (Harlan diet #TD00434, Harlan Teklad, Madison, Wis.) for the duration of the experiment. FR-positive paclitaxel resistant KB-PR10 cells were grown continuously as a monolayer, using folate-free RPMI medium (FFRPMI) containing 5% heat-inactivated fetal calf serum (HIFCS) at 37° C. in a 5% CO2/95% air-humidified atmosphere with no antibiotics. KB-PR10 cells (1×10^6 per nu/nu mouse) in 100 μL were injected in the subcutis of the dorsal medial area. […] Mice were treated with 20 mg/kg Paclitaxel, 2 μmol/kg EC145 (See WO2004/069159 for a description of EC145) or 1 μmol/kg Compound I on a three times a week for 2 weeks schedule when the tumors were approximately 100-145 mm^3, 101-129 mm^3 and 100-140 mm^3 in volume, respectively. The mice in the control groups received no treatment. […] All in vivo studies were performed in accordance with the American Accreditation Association of Laboratory Animal Care guidelines.

[7] = tested on: ST024 Ovarian tumors; experiment: Antitumor activity in Ovarian ST024 model; type: in vivo, mice
Method: as §2

[8] = tested on: LU1147 tumors; experiment: Antitumor activity in Huprime NSCLC PDX tumor model LU1147; type: in vivo, mice
Method: as §1

[9] = tested on: ST502 TNBC tumors; experiment: Antitumor activity in Triple Negative Breast Cancer (TNBC) ST502 model; type: in vivo, mice
Method: as §2

[10] = EC1456 2 μmol/kg, two times a week for two weeks
[11] = EC1456 4 μmol/kg, once a week for two weeks
[12] = EC1456 1.5 μmol/kg, two times a week for two weeks (BIW×2)
[13] = EC1456 3 μmol/kg, once a week for two weeks (SIW×2)
[14] = DL1 and DL2 (0.5 and 1.0 mg/m^2, BIW), 6 patients
[15] = EC1456 2 μmol/kg, two times a week for two weeks (BIW×2)
[16] = EC1456 4 μmol/kg, once a week for two weeks (SIW×2)
[17] = Paclitaxel 15 mg/kg, once a week for two weeks (SIW×2)
[18] = Eribulin mesylate 1 mg/kg, once a week for two weeks (SIW×2)

CCCC(=O)OCN(C(=O)[C@@H](NC(=O)[C@H]1CCCCN1C)C(C)CC)[C@H](C[C@@H](OC(C)=O)c1nc(C(=O)N[C@@H](Cc2ccc(O)cc2)C[C@H](C)C(=O)NNC(=O)OCCSSC[C@@H](NC(=O)[C@H](CCC(=O)NC[C@H](O)[C@@H](O)[C@H](O)[C@H](O)CO)NC(=O)[C@@H](CCC(=O)O)NC(=O)[C@H](CCC(=O)NC[C@H](O)[C@@H](O)[C@H](O)[C@H](O)CO)NC(=O)[C@@H](CCC(=O)O)NC(=O)[C@H](CCC(=O)NC[C@H](O)[C@@H](O)[C@H](O)[C@H](O)CO)NC(=O)CC[C@@H](NC(=O)c2ccc(NCc3cnc4nc(N)[nH]c(=O)c4n3)cc2)C(=O)O)C(=O)O)cs1)C(C)C (some centres unmarked) [EC1456]
anti-tumor activity [1]: excellent anti-tumor activity | cures ([1]; 1000 mm^3 tumor group): 100% | cures ([1]; 1400 mm^3 tumor group): 100% | cures [2, 10]: 7 of 7 | cures [2, 11]: 7 of 7 | animal exhibiting PR [3, 12]: 1 animal | anti-tumor activity [3, 12]: slightly better anti-tumor activity | anti-tumor activity [3, 13]: slightly better anti-tumor activity | partial response (PR) [3, 13]: 1 | Grade 4 or treatment-related Grade 3 TEAEs ([4]; DL1 (0.5 mg/m^2, BIW)): No Grade 4 or treatment-related Grade 3 TEAEs were observed | severity of TEAEs (tinnitus, constipation, asthenia, ataxia, dizziness, orthostatic hypotension) ([4]; DL1 (0.5 mg/m^2, BIW)): mild and self-limited | SAE ([4]; DL1 (0.5 mg/m^2, BIW), Grade 3 vomiting in cycle 6, attributed to a viral syndrome): one | deaths on treatment or within 30 days of study discontinuation, treatment related SAEs, DLTs [4, 14]: No deaths occurred on treatment or within 30 days of study discontinuation, treatment related serious adverse events (SAEs) or DLTs | dose delays, omissions, or reductions due to toxicity [4, 14]: no dose delays, omissions, or reductions due to toxicity | SAEs ([4]; DL2 (1.0 mg/m^2, BIW)): no SAEs | severity of TEAEs (abdominal pain, diarrhea, vomiting, hypoglycemia, pain) ([4]; DL2 (1.0 mg/m^2, BIW)): mild and self-limited | ≧Grade 3 TEAEs regardless of relatedness ([4]; DL2 (1.0 mg/m^2, BIW)): no ≧Grade 3 TEAEs observed | cumulative or late-emerging treatment-related AEs ([4]; either dose level (DL1, DL2)): no evidence of cumulative or late-emerging treatment-related AEs | animals exhibiting PR's [5, 15]: 3 animals | anti-tumor activity [5, 15]: some anti-tumor activity | cure [5, 15]: 2 | animals exhibiting PR's [5, 16]: 5 animals | anti-tumor activity [5, 16]: some anti-tumor activity | anti-tumor activity ([6]; 2 μmol/kg): no-anti-tumor activity | PRs ([6]; EC1456 1 μmol/kg): 60% | antitumor activity ([6]; EC1456 1 μmol/kg): good antitumor activity | cures ([6]; EC1456 1 μmol/kg): 40% | animals exhibiting cures [7, 15]: 100% | anti-tumor activity [7, 15]: curative | animals exhibiting cures [7, 16]: 100% | anti-tumor activity [7, 16]: curative | cure [7, 16]: 5 | partial response (PR) [7, 16]: 2 | animals exhibiting stable disease [8, 10]: 5 animals | animals exhibiting stable disease [8, 11]: 6 animals | anti-tumor activity [9, 15]: no anti-tumor activity | anti-tumor activity [9, 16]: no anti-tumor activity

CC(=O)O[C@H]1C(=O)[C@@]2(C)[C@H]([C@H](OC(=O)c3ccccc3)[C@]3(O)C[C@H](OC(=O)[C@H](O)[C@@H](NC(=O)c4ccccc4)c4ccccc4)C(C)=C1C3(C)C)[C@]1(OC(C)=O)CO[C@@H]1C[C@@H]2O [Paclitaxel, reference compound]
anti-tumor activity [3, 17]: minimal anti-tumor activity | anti-tumor activity ([6]; paclitaxel 20 mg/kg): little to no anti-tumor activity | anti-tumor activity [7, 17]: no anti-tumor activity

CC(=O)O[C@@]12CO[C@@H]1C[C@H](O)[C@@]1(C)C(=O)[C@H](O)C3=C(C)[C@@H](OC(=O)[C@H](O)[C@@H](NC(=O)OC(C)(C)C)c4ccccc4)C[C@@](O)([C@@H](OC(=O)c4ccccc4)[C@H]21)C3(C)C [Docetaxel]
CR's ([2]; Docetaxel 15 mg/kg, one dose): 2 | PR's ([2]; Docetaxel 15 mg/kg, one dose): 2 | anti-tumor activity ([2]; Docetaxel 15 mg/kg, one dose): some anti-tumor activity | cures ([2]; Docetaxel 15 mg/kg, one dose): 2 | animals exhibiting stable disease ([8]; Docetaxel 15 mg/kg, one dose): 2 animals | anti-tumor activity ([8]; Docetaxel 15 mg/kg, one dose): minimal anti-tumor activity

C=C1C[C@@H]2CC[C@@]34C[C@H]5O[C@H]6[C@@H](O3)[C@H]3O[C@H](CC[C@@H]3O[C@H]6[C@H]5O4)CC(=O)C[C@@H]3[C@@H](OC)[C@@H](C[C@H](O)CN)O[C@H]3C[C@H]3O[C@@H](CC[C@@H]1O2)C[C@@H](C)C3=C [Eribulin mesylate, reference compound]
PR's [5, 18]: 2 | anti-tumor activity [5, 18]: some anti-tumor activity | animal exhibiting PR [9, 18]: 1 animal | anti-tumor activity [9, 18]: minimal anti-tumor activity
